Measurements taken from patent publication US10266871B2, “Measurement method for thrombin production” (DAIICHI SANKYO COMPANY, LIMITED, priority 2012, dated 2019).
“Also recorded” adds a separate entry of the source.

Key:
[1] = tested on: thrombin generation in human PRP; assay: Studies regarding measurement conditions: ADP alone on thrombin generation in human PRP; type: cell-based; conditions: ADP final concentration 5, 10 or 20 μM, no TF
[2] = tested on: thrombin generation in human PRP; conditions: Example 2; Edoxaban 40, 80 ng/mL; Ticagrelor 3 μg/mL; ADP 10 μM, TF 0.25 pM
Method: The obtained blood was centrifuged at room temperature at 150×g for 10 minutes, so that a supernatant was obtained as PRP. The residue obtained after separation of the PRP was centrifuged at room temperature at 2000×g for 10 minutes, so that a supernatant was obtained as platelet poor plasma (hereinafter also referred to as “PPP”). The PRP was diluted with the PPP, so that the number of platelets in the PRP could be 2×10^5 platelets/μL. The obtained PRP was left at 16° C. for 30 minutes or more, and it was then used for the measurement of thrombin generation.
10 μL of a 1% DMSO-containing saline was added to a 96-well plate, and 70 μL of the above obtained human PRP was then added thereto. […]
Five to seven minutes later, 20 μL of the heated FluCa-kit liquid (manufactured by Thrombinoscope BV) was added to the well, so that the reaction was initiated. Using a fluorophotometer (Fluoroskan Ascent, manufactured by Thermo Scientific), the fluorescence intensity at ex 390 nm/em 460 nm was measured at 37° C. for 150 minutes, and using Thrombinoscope software (manufactured by Thrombinoscope BV), Lag time (min), Time to Peak (min), ETP (nM×min), Peak (nM), and MaxR (nM/min) were calculated. […]
Subsequently, individual parameters were calculated in the same manner as that in the above “Studies regarding measurement conditions.” […]

Nc1ncnc2c1ncn2[C@@H]1O[C@H](COP(=O)(O)OP(=O)(O)O)[C@@H](O)[C@H]1O [ADP, adenosine diphosphate]
Effect of ADP alone on thrombin generation [1]: provokes thrombin generation

CCCSc1nc(N[C@@H]2C[C@H]2c2ccc(F)c(F)c2)c2nnn([C@@H]3C[C@H](OCCO)[C@@H](O)[C@H]3O)c2n1 [Ticagrelor]
Effect on thrombin generation, agent used alone compared to controls [2]: suppresses the generation of thrombin; also recorded: significantly suppresses thrombin generation, in terms of Peak, Time to Peak, and MaxR
